From patent US9220719B2, “Single dose oral formulations and methods for treatment of cats with ectoparasiticidal spinosad” (priority 2012, dated 2015)

Columns and labels:
[1] = tested on: adult cat fleas (Ctenocephalides felis); experiment: Dose confirmation: efficacy of flavored spinosad tablet against fleas on experimentally infested cats (Example 4); assay type: in vivo; settings: flavored tablet 50-75 mg/kg single oral dose, fed
Text: Confirmation of the efficacious dose of spinosad can be evaluated in cats experimentally infested with adult fleas (Ctenocephalides felis).
Twenty-four (24) cats that meet the inclusion/exclusion criteria and had the highest pre-treatment live flea (C. felis) counts can be included in a randomized complete block design with pre-treatment live flea counts used as a blocking factor. Each cat can be infested with approximately 100 unfed adult fleas (C. felis) on Test Day −9. Pre-treatment live flea counts can be conducted using the laboratory's comb counting method on Test Day −7. The Test Day −7 live flea counts can be used to allocate cats to one of two treatment groups. The two treatment groups of 12 cats per group can be orally dosed on Test Day 0. One group (5 male: 7 female) can receive vehicle control (0 mg/kg placebo tablets) and the second group (7 male: 5 female) can receive flavored spinosad tablets at a dose rate of 50-75 mg/kg body weight. Cats can consume canned cat food just prior to dosing and can be offered their daily maintenance diet after dosing. Each cat can be infested with approximately 100 unfed adult fleas (C. felis) on Test Days −1, 5, 12, 19, 28 and 35. Individual animal live flea counts can be performed on Test Days 1, 7, 14, 21, 30 and 37.

[2] = Tolerability of flavored spinosad tablet in cats (Example 3); assay type: in vivo, cat; settings: beef flavored tablet 51.47 to 76.06 mg/kg single oral dose
Text: In total, twenty-two (22) cats can be acclimatized for the study and from these, 17 can be selected based on pre-treatment weight and flea retention counts to be randomized into either a treated or control group. Nine cats can be assigned to the control group and eight cats can be assigned to the treatment group based on flea retention counts from Day −5. Cats in the treated group can be dosed on Day 0 with the intended final formulation, a beef flavored tablet containing spinosad at a dose rate of 50-75 mg/kg spinosad/body weight, while the cats in the control group can be dosed with a vehicle control tablet.
Seventeen cats were randomized based on pre-treatment flea infestation counts into either a treated or control group. Eight cats were dosed on Day 0 with a beef flavored tablet containing spinosad with an overall dose range of 51.47 to 76.06 mg/kg spinosad body weight. The other nine cats were dosed with a vehicle control tablet.

Substance: spinosad
- knockdown efficacy based on geometric means ([1]; Day 1): 100%
- residual efficacy based on geometric means ([1]; Day 7): 99.78%
- residual efficacy based on geometric means ([1]; Day 14): 99.57%
- residual efficacy based on geometric means ([1]; Day 21): 95.83%
- residual efficacy based on geometric means ([1]; Day 30): 90.77%
- residual efficacy based on geometric means ([1]; Day 37): 90.36%
- tolerability [2]: adequately tolerated
